# Reference: patent US9867833B2, “Serine/threonine kinase inhibitors” (GENENTECH, INC., priority 2013, dated 2018)
# Molecular target: human ERK-2 (Mitogen Activated Kinase 1) (Homo sapiens (Human), UniProt P28482)
# Test: ERK-2 Enzymatic Assay
# Format: biochemical
# Conditions: human ERK-2 enzyme 5 nM, 25 μM ATP, S/T17 peptide substrate; isomer = configuration of CR2R3
# How it was run: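 Recombinant human ERK-2 (aa 8-360, N-terminal 6-His, E. coli) with 3-fold serially diluted compound. Per-well rates from linear fits converted to percent of control; IC50 by four-parameter fit.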
# Chain of human ERK-2 (Mitogen Activated Kinase 1) (P28482 8-360): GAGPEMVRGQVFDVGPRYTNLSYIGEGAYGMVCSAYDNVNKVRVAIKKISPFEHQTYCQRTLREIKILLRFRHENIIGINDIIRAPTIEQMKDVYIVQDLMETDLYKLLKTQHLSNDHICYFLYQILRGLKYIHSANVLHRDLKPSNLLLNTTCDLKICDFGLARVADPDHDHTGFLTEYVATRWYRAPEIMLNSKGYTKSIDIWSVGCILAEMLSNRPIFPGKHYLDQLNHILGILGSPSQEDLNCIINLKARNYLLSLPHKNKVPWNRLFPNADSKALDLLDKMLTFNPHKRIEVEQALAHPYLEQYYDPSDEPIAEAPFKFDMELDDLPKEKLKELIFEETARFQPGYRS
row,IC50 [nM],Structure (SMILES)
1,0.273,"CN1C(=O)N(Cc2ccc(Cl)cc2)c2nnc3cc(-c4ccnc(Nc5ccnn5C)n4)cc1n23 [Compound I-98, 3-(4-chlorobenzyl)-5-methyl-7-(2-((1-methyl-1H-pyrazol-5-yl)amino)pyrimidin-4-yl)-3H-1,2,2a^1,3,5-pentaazaacenaphthylen-4(5H)-one]"
2,0.113,"CN1C(=O)N(Cc2cc(F)cc(F)c2)c2nnc3cc(-c4ccnc(Nc5ccnn5C)n4)cc1n23 [Compound I-99, 3-(3,5-difluorobenzyl)-5-methyl-7-(2-((1-methyl-1H-pyrazol-5-yl)amino)pyrimidin-4-yl)-3H-1,2,2a^1,3,5-pentaazaacenaphthylen-4(5H)-one]"
3,< 0.02,"CN1C(=O)N(Cc2cccc(Cl)c2)c2nnc3cc(-c4ccnc(Nc5ccnn5C)n4)cc1n23 [Compound I-100, 3-(3-chlorobenzyl)-5-methyl-7-(2-((1-methyl-1H-pyrazol-5-yl)amino)pyrimidin-4-yl)-3H-1,2,2a^1,3,5-pentaazaacenaphthylen-4(5H)-one]"
